In ChEMBL document CHEMBL3400029, “Xanthones from the roots of Maclura cochinchinensis var. gerontogea and their retinoic acid receptor-α agonistic activity” (Bioorg Med Chem Lett, 2015):
pEC50: −log10 of the molar value. The source made the active and inactive calls. No cut-off for these calls is given here.

Legend:
Type in all cases: cell-based
[1] = molecular target: T1, Retinoic acid receptor alpha (Homo sapiens, UniProt P10276); experiment: (§1) Agonist activity at RARalpha (unknown origin) expressed in HEK293 cells assessed as transcriptional activation after 48 hrs by luciferase reporter gene assay
T1 sequence (P10276 whole entry): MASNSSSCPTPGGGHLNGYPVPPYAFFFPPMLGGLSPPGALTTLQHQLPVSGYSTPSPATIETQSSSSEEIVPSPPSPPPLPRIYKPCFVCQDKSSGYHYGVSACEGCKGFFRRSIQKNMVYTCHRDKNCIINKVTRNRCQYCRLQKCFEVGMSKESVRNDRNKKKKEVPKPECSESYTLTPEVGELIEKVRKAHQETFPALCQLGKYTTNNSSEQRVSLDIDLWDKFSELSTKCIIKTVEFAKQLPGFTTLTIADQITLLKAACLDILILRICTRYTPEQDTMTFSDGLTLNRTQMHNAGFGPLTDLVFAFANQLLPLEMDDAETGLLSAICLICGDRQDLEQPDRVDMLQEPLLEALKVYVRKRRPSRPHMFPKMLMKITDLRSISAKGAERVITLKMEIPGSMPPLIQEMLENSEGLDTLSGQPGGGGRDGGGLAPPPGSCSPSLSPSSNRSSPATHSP

[2] = molecular target: T2, Retinoic acid receptor alpha (Homo sapiens) (UniProt P10276); experiment: as §1
T2 sequence (whole entry): T1 sequence (P10276 whole entry)

[3] = molecular target: T1, Retinoic acid receptor alpha; experiment: Agonist activity at RARalpha (unknown origin) expressed in HEK293 cells assessed as transcriptional activation after 48 hrs by luciferase reporter gene assay in presence of bexarotene
[4] = molecular target: T2, Retinoic acid receptor alpha (Homo sapiens); experiment: Agonist activity at RARalpha (unknown origin) expressed in HEK293 cells assessed as transcriptional activation at 1 uM after 48 hrs by luciferase reporter gene assay
HEK293 = experiment: Cytotoxicity against HEK293 cells at > 1 uM; conditions: human

Row | SMILES | pEC50 [1] | Activity [2] | pEC50 [3] | Activity [4] | Activity (HEK293)
1 | CC1(C)C=Cc2c(cc(O)c3c(=O)c4c5c(ccc4oc23)OC(C(C)(C)O)C5)O1 (stereo not drawn) | 7.19 | Dose-dependent effect | 6.77 | Active | 
2 | CC(C)=CCc1c(O)ccc2oc3c4c(cc(O)c3c(=O)c12)OC(C)(C)C=C4 | 6.96 | Dose-dependent effect | 6.70 | Active | 
3 | CC1Oc2cc3oc4c(O)c5c(cc4c(=O)c3c(O)c2C1(C)C)C=CC(C)(C)O5 (stereo not drawn) [GERONTOXANTHONE A] | 6.77 | Dose-dependent effect | 6.70 | Active | 
4 | C=CC(C)(C)c1c(O)cc2oc3c(O)c4c(cc3c(=O)c2c1O)C=CC(C)(C)O4 [GERONTOXANTHONE B] | 5.77 | Dose-dependent effect | 5.70 | Active | 
5 | CC(C)=CCc1c(O)cc(O)c2c(=O)c3c(CC=C(C)C)c(O)ccc3oc12 [GERONTOXANTHONE H] |  |  |  | Active | Toxic
